ChEMBL document CHEMBL1137265, “Macrolactin N, a new peptide deformylase inhibitor produced by Bacillus subtilis” (Bioorg Med Chem Lett, 2006)
≈ marks a conversion by molar mass, not a printed value.

Key:
Bacillus subtilis = test: Antibacterial activity against Bacillus subtilis KCTC 1021 by microdilution broth method; type: functional
Staphylococcus aureus = test: Antibacterial activity against Staphylococcus aureus RN4220 by microdilution broth method; type: functional
Escherichia coli = test: Antibacterial activity against Escherichia coli KCTC 1924 by microdilution broth method; type: functional
Peptide deformylase = molecular target: T1, Peptide deformylase (Staphylococcus aureus, UniProt P68826); test: Inhibition of Staphylococcus aureus peptide deformylase in presence of substrate f-MAS
T1 sequence (P68826 whole entry): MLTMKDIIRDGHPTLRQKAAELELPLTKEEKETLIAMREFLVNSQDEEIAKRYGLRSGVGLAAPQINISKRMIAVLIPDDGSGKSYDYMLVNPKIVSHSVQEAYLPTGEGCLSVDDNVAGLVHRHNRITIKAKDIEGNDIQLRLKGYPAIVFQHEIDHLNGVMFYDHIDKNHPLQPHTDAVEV

MIC50 (Bacillus subtilis): 100 µg/mL (≈ 259 µM) | MIC50 (Staphylococcus aureus): 100 µg/mL (≈ 259 µM) | MIC (Escherichia coli): 100 µg/mL (≈ 259 µM) | IC50 (Peptide deformylase): 7.5 µM
Compound: CC1CCC/C=C/CCC(=O)CCC/C=C\C=C\[C@@H](O)C/C=C/C=C\C(=O)O1 (some centres undefined)
